Data reported in ChEMBL document CHEMBL1201862, “PubChem BioAssay data set” (2004).
Calls of active or inactive are those of the source.

Legend:
Estrogen receptor = molecular target: T1, Estrogen receptor (Homo sapiens, UniProt P03372); experiment: potentiators of ERα–SRC-1 coactivator binding, dose response, biochemical, TR-FRET, ERα LBD (AID 737)
T1 sequence (P03372 whole entry): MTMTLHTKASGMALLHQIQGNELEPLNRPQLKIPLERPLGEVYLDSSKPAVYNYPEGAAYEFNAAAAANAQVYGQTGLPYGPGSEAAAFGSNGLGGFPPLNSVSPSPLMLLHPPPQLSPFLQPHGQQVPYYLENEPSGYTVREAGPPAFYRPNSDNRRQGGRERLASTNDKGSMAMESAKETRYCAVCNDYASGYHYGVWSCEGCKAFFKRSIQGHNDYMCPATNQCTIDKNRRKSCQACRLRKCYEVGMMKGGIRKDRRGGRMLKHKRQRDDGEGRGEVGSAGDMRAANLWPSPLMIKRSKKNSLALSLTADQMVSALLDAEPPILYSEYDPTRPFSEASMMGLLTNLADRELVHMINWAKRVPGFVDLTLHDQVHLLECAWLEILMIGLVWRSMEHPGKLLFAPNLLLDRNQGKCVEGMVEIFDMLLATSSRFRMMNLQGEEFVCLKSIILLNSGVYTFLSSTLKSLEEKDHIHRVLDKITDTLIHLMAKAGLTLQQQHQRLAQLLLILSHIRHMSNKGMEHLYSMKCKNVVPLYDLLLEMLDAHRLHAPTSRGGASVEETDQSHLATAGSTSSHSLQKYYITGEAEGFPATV

[1] = molecular target: DNA (cytosine-5)-methyltransferase 1 (Homo sapiens, UniProt P26358); experiment: DNMT1 methyltransferase inhibitors, confirmation, biochemical, fluorescent molecular beacon (AID 602386); assay type: functional
[2] = HIV-1 Env-mediated cell fusion inhibitors, dose response, CCR5-tropic Env (AID 2279); assay type: functional
[3] = molecular target: T2, High affinity choline transporter 1 (Homo sapiens, UniProt Q9GZV3); experiment: CHT inhibitors, dose response, cell-based, 10-point CRC, membrane potential dye (AID 588401); assay type: functional;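 also: membrane potential dye fluorescence of choline-evoked depolarization via CHT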
T2 sequence (Q9GZV3 whole entry): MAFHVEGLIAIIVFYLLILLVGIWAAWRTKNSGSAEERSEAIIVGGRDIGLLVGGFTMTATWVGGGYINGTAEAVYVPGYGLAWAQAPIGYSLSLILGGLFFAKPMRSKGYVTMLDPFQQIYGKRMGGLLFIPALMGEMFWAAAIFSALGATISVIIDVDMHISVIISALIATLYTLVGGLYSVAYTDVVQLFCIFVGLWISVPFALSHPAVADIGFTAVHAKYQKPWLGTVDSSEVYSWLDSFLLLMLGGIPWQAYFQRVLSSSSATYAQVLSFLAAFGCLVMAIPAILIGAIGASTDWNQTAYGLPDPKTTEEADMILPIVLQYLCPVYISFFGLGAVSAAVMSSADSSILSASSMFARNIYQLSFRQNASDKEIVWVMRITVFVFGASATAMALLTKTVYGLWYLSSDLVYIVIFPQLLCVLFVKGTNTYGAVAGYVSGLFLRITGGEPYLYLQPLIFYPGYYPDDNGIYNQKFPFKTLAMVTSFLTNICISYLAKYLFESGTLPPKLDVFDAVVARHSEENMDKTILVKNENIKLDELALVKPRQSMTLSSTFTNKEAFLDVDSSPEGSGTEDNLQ

[4] = molecular target: T2, High affinity choline transporter 1; experiment: CHT inhibitors, dose response, cell-based, 5-point CRC, membrane potential dye (AID 504840); assay type: functional
[5] = molecular target: Sphingosine 1-phosphate receptor 2 (Homo sapiens, UniProt O95136); experiment: Dose Response Cell Based Assay for Agonists of the S1P2 Receptor of Purchased Analogues. [Related pubchem assays: 729, 843, 854, 736 ]; assay type: functional
[6] = THP-1 cell cytotoxicity, dose response, cytotoxicity control for Vif-APOBEC3G degradation inhibitor project, THP-1 cells (AID 1117359); assay type: functional; details: Human immunodeficiency virus 1, THP-1
[7] = molecular target: T3, Mannose-6-phosphate isomerase (Homo sapiens, UniProt P34949); experiment: human PMI inhibitors, high substrate, primary screen, biochemical, fluorescence intensity, high mannose 6-phosphate (AID 1220)
T3 sequence (P34949 whole entry): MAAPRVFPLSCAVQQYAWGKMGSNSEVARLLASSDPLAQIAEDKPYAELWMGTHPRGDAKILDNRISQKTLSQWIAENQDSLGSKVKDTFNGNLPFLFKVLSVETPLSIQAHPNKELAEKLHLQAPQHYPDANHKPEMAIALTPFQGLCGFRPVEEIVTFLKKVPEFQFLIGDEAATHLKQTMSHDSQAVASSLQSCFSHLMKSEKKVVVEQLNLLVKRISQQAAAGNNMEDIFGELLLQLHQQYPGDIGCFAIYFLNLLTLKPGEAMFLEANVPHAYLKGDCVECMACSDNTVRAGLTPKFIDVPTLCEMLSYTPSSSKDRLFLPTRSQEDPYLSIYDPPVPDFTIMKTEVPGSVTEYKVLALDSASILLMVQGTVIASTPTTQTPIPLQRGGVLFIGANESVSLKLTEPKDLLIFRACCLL

[8] = molecular target: Induced myeloid leukemia cell differentiation protein Mcl-1 (Homo sapiens, UniProt Q07820); assay type: functional
NS3 = NS3 (Hepatitis C virus, UniProt A3EZJ3); experiment: PubChem AID 2173; set-up: species or system Hepacivirus hominis
[9] = enhancers of respiration in Yfh1-depleted yeast, dose response, Friedreich's ataxia, plus single-dose screen (AID 1465); assay type: functional;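 also: yeast depleted of Yfh1p frataxin homolog grown on glycerol needing respiration; WST-1 tetrazolium dye reduction as measure of cellular dehydrogenase metabolic activity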
[10] = molecular target: Peroxisome proliferator-activated receptor gamma/Nuclear receptor coactivator 1 (Homo sapiens, UniProt P37231); assay type: functional;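 also: agonist potency as compounds enhance coactivator SRC-1 recruitment to PPARgamma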
[11] = molecular target: Peroxisome proliferator-activated receptor gamma/Nuclear receptor coactivator 3 (Homo sapiens, UniProt P37231); assay type: functional;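 also: agonist potency for raising coactivator recruitment to the receptor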
[12] = molecular target: Peroxisome proliferator-activated receptor gamma/Nuclear receptor coactivator 2 (Homo sapiens, UniProt P37231); assay type: functional;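 also: agonist potency for raising coactivator recruitment to the receptor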
[13] = Artemis endonuclease inhibitor potency, dose response, biochemical, fluorescence intensity (AID 720701); assay type: functional;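 also: Artemis endonuclease enzyme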
[14] = Luminescence Cell-Based Dose Response HTS to Identify Inhibitors of 5'UTR Stem-Loop Driven Prion Protein mRNA Translation in H4 Neuroglioblastoma Cells. [Related pubchem assays: 1827 (Project Summary), 1813 (Primary HTS)]; assay type: functional
[15] = molecular target: Luciferin 4-monooxygenase (Photinus pyralis, UniProt P08659); experiment: Counter Screen for Luciferase-based Assay Positives. [Related pubchem assays: 620, 618, 411 ]
BJ [16] = experiment: cells; assay type: functional, cell-based; details: Homo sapiens
[17] = molecular target: Tyrosyl-DNA phosphodiesterase 2 (Homo sapiens, UniProt O95551); experiment: human TDP2 enzyme inhibitors, dose response, biochemical, epi absorbance, IC50 (AID 743297)
BJ [18] = experiment: cytotoxicity toward BJ-TERT-LT-ST fibroblasts, dose response, cell-based, RAS-independent, luminescence (AID 1935); assay type: functional; details: Homo sapiens;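 also: BJ fibroblasts immortalized with TERT plus LT and ST oncogenes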
[19] = cytotoxicity toward DRD oncogenic fibroblasts, dose response, cell-based, non-viral oncogenic, luminescence (AID 1934); assay type: functional; details: Homo sapiens
[20] = molecular target: T4, Apoptotic protease-activating factor 1 (Homo sapiens, UniProt O14727); assay type: functional
T4 sequence (O14727 whole entry): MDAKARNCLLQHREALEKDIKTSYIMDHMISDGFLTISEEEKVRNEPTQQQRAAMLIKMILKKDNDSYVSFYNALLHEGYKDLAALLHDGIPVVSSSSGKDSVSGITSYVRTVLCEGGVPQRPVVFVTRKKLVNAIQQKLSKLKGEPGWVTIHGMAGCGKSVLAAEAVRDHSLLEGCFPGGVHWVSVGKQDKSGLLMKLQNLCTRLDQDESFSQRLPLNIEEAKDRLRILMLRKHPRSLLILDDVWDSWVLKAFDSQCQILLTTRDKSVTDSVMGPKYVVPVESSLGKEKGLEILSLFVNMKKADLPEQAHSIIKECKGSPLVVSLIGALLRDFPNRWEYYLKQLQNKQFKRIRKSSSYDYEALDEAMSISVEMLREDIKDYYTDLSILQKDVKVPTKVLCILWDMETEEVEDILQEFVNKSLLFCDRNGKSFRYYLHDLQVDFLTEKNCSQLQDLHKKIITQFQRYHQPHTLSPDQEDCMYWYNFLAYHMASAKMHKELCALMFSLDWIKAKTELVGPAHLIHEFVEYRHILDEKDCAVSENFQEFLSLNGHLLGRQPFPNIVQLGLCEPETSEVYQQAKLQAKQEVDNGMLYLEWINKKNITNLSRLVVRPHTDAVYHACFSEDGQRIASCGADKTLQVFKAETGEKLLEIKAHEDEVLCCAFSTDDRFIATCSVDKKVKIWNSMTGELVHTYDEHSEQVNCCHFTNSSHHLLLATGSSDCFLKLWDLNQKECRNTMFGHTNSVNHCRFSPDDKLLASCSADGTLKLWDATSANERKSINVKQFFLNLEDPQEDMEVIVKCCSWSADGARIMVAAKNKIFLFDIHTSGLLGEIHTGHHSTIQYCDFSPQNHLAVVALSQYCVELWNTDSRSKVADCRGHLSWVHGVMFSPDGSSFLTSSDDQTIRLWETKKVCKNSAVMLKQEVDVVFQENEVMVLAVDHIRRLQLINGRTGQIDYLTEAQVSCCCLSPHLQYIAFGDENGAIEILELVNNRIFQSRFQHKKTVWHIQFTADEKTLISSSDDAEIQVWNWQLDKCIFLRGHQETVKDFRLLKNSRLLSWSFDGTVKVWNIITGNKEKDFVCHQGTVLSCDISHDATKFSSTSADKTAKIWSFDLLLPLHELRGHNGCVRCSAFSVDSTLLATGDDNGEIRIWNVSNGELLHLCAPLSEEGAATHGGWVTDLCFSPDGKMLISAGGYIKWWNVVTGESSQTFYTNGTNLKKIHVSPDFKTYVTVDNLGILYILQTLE

[21] = inhibitors of firefly luciferase expression or activity, dose response, H4 neuroglioma cells, luminescence (AID 1990); assay type: functional, cell-based
BJ [22] = experiment: cytotoxicity toward BJ-TERT fibroblasts, dose response, cell-based, RAS-independent, luminescence (AID 1933); assay type: functional; details: Homo sapiens
Hexokinase HKDC1 = molecular target: T5, Hexokinase HKDC1 (Homo sapiens, UniProt Q2TB90); experiment: HKDC1 hexokinase inhibitors, dose response, biochemical, W721R variant (AID 504729); assay type: functional
T5 sequence (Q2TB90 whole entry): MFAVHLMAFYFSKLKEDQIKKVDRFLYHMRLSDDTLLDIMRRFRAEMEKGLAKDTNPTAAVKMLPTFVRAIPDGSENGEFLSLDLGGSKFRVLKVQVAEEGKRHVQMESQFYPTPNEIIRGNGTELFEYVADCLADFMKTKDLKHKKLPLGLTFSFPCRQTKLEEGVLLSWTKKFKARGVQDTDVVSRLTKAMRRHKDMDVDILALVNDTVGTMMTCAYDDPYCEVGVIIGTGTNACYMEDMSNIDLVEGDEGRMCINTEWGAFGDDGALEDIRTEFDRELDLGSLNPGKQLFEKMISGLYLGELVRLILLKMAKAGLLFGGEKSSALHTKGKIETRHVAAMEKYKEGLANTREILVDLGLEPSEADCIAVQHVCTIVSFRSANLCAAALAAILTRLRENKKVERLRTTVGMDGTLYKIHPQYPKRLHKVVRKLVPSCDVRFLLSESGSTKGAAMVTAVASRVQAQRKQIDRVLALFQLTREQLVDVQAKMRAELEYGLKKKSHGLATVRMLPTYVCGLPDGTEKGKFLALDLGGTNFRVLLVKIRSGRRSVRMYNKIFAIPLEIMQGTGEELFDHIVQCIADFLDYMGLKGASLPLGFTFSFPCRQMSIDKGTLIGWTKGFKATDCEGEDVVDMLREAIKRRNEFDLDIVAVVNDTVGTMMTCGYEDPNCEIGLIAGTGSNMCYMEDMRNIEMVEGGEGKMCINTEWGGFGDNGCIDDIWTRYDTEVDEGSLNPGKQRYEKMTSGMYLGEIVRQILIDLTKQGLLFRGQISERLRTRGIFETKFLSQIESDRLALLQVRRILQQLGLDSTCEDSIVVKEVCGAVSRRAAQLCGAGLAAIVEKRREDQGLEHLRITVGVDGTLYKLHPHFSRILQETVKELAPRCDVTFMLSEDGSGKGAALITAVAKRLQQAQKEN

[23] = molecular target: Mothers against decapentaplegic homolog 3 (Homo sapiens, UniProt P84022); experiment: SMAD3 transcription factor inhibitors, dose response (AID 715); assay type: functional
[24] = inhibitors of SNCA 5'UTR-driven reporter translation, confirmation, H4 neuroglioma cells, luminescence (AID 1988); assay type: functional, cell-based
[25] = molecular target: Mitochondrial peptide methionine sulfoxide reductase (Bos taurus, UniProt P54149); assay type: functional;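 also: absorbance read-out, biochemical high-throughput dose-response screen for MsrA inhibitors, confirmatory; recombinant bovine MsrA coupled to E. coli TrxB with NADPH and selenocystamine; potency is for inhibitors of MsrA activity on DMSO substrate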
HT-1080 = experiment: cytotoxicity in HT1080 fibrosarcoma cells, cell-based, fluorescence readout (AID 620); assay type: functional; details: Homo sapiens

Chain of Luciferin 4-monooxygenase (P08659 whole entry): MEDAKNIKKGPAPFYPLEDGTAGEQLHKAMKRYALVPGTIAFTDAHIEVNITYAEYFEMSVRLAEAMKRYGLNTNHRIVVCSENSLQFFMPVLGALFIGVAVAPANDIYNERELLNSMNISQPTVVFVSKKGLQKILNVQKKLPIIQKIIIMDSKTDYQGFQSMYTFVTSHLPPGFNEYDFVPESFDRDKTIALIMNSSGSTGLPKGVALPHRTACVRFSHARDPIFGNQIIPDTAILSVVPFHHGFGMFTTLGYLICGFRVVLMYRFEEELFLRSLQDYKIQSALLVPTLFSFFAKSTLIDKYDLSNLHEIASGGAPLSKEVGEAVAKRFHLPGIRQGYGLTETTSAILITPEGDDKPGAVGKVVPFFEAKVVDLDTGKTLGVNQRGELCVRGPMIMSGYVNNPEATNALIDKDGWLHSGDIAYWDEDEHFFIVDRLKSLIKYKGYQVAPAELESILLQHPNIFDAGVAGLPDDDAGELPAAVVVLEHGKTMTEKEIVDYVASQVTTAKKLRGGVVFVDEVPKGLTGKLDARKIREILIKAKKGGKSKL
Chain of DNA (cytosine-5)-methyltransferase 1 (P26358 whole entry, the tested form may be a part): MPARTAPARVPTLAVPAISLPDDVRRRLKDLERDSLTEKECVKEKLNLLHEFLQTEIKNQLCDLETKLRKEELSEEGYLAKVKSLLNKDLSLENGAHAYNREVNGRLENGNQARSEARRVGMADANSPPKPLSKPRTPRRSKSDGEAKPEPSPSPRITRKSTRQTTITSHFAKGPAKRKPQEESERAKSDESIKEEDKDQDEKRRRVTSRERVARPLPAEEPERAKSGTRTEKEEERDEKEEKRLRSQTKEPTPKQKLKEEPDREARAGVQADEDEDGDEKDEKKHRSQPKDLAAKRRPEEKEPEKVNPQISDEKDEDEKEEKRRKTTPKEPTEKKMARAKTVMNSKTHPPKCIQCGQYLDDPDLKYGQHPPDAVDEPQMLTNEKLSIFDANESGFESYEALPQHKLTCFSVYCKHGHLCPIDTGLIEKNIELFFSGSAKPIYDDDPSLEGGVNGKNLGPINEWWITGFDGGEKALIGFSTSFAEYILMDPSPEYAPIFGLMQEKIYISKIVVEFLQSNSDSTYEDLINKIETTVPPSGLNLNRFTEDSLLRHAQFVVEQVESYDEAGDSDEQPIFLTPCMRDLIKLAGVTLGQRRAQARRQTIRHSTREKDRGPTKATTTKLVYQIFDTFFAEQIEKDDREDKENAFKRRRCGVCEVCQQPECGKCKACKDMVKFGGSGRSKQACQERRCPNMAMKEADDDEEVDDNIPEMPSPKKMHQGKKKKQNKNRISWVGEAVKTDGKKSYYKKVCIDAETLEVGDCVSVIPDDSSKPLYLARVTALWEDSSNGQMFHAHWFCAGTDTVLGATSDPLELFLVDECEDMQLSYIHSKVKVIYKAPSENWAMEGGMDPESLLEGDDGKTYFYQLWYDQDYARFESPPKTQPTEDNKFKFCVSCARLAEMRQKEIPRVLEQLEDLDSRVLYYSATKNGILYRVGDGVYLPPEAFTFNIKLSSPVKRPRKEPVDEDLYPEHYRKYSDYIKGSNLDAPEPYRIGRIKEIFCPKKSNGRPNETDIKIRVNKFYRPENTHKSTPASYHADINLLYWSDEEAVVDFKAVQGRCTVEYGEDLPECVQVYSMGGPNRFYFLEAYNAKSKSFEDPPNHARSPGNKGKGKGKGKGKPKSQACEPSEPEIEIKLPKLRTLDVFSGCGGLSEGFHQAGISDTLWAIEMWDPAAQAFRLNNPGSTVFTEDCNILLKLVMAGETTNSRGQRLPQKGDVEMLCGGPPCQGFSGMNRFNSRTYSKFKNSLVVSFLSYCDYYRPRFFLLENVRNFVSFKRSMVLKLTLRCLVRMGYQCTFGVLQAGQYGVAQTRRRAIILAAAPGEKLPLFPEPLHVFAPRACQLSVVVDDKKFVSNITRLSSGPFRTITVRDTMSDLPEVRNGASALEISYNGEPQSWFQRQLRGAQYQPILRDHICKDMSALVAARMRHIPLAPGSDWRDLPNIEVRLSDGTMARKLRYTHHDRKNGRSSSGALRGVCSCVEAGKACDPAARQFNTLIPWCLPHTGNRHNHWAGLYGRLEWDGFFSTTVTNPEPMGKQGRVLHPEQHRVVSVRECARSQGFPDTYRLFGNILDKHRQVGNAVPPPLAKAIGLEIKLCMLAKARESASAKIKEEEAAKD
Chain of Induced myeloid leukemia cell differentiation protein Mcl-1 (Q07820 whole entry): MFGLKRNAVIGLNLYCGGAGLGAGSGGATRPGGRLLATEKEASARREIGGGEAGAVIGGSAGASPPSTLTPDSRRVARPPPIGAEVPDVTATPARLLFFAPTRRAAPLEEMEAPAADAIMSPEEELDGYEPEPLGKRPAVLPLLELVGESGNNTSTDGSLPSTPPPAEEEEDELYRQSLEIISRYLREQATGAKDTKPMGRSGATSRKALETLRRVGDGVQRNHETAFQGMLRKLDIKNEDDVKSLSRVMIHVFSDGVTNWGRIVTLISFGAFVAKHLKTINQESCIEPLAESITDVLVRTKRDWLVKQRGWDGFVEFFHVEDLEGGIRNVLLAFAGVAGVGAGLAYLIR
Chain of Sphingosine 1-phosphate receptor 2 (O95136 whole entry): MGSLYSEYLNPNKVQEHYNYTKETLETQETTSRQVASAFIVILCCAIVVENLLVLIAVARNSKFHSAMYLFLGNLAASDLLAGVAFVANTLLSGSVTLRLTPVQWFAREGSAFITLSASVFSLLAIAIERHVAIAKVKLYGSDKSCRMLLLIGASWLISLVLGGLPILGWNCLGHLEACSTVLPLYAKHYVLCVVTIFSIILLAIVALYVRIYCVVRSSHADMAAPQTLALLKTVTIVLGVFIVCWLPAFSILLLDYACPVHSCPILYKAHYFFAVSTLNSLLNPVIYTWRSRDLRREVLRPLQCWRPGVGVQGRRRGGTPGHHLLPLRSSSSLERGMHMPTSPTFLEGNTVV
Chain of Mothers against decapentaplegic homolog 3 (P84022 whole entry): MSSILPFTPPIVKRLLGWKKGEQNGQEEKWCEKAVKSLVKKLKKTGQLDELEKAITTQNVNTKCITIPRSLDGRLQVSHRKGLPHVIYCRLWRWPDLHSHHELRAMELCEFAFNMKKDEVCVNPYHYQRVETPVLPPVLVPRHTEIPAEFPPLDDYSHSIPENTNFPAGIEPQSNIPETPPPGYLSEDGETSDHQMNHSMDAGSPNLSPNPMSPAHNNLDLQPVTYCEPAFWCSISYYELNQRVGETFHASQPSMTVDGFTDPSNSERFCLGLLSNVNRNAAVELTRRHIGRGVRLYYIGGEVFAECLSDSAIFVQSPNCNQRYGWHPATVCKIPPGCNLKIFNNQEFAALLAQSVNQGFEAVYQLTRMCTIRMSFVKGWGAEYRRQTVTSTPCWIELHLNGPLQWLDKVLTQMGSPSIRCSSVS
Chain of Mitochondrial peptide methionine sulfoxide reductase (P54149 whole entry): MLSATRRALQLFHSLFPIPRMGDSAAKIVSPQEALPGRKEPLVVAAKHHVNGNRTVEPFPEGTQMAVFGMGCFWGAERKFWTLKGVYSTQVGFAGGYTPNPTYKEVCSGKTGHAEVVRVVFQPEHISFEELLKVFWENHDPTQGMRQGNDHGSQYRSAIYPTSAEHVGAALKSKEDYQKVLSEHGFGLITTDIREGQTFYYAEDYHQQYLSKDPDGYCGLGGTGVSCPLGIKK
Chain of Tyrosyl-DNA phosphodiesterase 2 (O95551 whole entry): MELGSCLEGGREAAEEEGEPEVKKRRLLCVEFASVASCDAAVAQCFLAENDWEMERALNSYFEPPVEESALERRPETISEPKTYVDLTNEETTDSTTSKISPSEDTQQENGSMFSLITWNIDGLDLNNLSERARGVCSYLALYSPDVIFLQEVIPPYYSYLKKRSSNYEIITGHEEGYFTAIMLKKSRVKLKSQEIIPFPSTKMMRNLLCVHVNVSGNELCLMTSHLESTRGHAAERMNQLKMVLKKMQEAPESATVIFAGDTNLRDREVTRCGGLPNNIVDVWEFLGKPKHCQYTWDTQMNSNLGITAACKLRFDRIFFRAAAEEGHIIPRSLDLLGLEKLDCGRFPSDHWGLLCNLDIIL
Chain of NS3 (A3EZJ3 whole entry): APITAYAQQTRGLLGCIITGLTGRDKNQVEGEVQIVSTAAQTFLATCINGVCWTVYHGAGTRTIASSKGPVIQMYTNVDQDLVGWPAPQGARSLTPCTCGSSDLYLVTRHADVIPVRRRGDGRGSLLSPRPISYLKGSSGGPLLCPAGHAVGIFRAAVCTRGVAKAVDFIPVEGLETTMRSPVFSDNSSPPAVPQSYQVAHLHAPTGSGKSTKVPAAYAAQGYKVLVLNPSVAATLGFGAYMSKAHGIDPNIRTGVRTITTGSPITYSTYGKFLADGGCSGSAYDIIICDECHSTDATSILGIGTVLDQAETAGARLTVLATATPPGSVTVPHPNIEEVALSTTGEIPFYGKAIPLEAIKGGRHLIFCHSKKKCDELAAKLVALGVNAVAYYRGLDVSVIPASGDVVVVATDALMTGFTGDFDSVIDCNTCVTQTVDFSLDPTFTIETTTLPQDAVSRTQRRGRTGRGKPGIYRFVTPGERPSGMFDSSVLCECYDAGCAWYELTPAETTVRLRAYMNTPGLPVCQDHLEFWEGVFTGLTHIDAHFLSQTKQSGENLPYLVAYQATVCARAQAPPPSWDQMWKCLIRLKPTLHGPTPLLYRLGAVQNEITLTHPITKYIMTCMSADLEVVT

## O=C(CSc1nc2c(cnn2-c2ccccc2)c(=O)[nH]1)c1ccc(Cl)cc1
Estrogen receptor
  EC50: 9.92 µM (active)
[1]
  IC50: 9.12 µM (active)

## CCS(=O)(=O)C1=NSC2=NC(=O)/C(=C\c3ccc(OS(=O)(=O)c4ccccc4)cc3)C(=N)N21
[2]
  IC50: 36.5 µM (active)
[3]
  IC50: 8.91 µM (active)
[4]
  IC50: 5.22 µM (active)

## Cc1cc(C(=O)Cn2cnc3c(oc4ccccc43)c2=O)c(C)n1Cc1ccccc1
[5]
  EC50: > 30 µM (not active)

## CCN(CC)S(=O)(=O)c1cccc(C(=O)N/N=C/c2ccc(O)c(O)c2O)c1
[6]
  CC50: > 40 µM (active)
[7]
  IC50: 5.36 µM (active)
[8]
  IC50: 7.33 µM (active)
NS3
  IC50: 5.31 µM (active)
[9]
  EC50: > 100 µM (active)

## O=C(NC(=S)Nc1ccccc1)c1ccc(Br)o1
[10]
  EC50: 17.6 µM (not active)
[11]
  EC50: 19.9 µM (not active)
[12]
  EC50: 16 µM (not active)

## O=C1C(N2CCOCC2)=C(n2nnc3ccccc32)C(=O)c2ccccc21
[13]
  IC50: 7.75 µM (active)
[14]
  EC50: 8.93 µM (active)
[15]
  EC50: 1.63 µM (active)
BJ [16]
  EC50: 5.06 µM (active)
[17]
  IC50: 10 µM (inactive)
BJ [18]
  EC50: > 150 µM (inconclusive)
[19]
  EC50: 10.5 µM (active)
[20]
  IC50: 4.02 µM (active)
[21]
  EC50: > 120 µM (not active)
BJ [22]
  EC50: 8.79 µM (active)
Hexokinase HKDC1
  IC50: 7.01 µM (active)
[23]
  IC50: 22 µM (active)
[24]
  EC50: > 120 µM (not active)
[25]
  IC50: 9.33 µM (active)
HT-1080
  EC50: 12.3 µM (active)
